These results are taken from patent US10028971B2, “Compositions and methods for treating psychiatric disorders” (GOSFORTH CENTRE (HOLDINGS) PTY LTD., priority 2008, dated 2018).

Test [1] concerns individuals with sleep disorders. Nature of the test: Sleep disorders, clinical observation. It is filed as in vivo, human. The note with it: person, chronic insomnia, restless legs; sodium valproate added to dexamphetamine 25 mg.
Test [2] has as its system individuals with developmental dyspraxia / poor coordination. Put plainly: Treatment of developmental dyspraxia, clinical observation. It is filed as in vivo, human. The note with it: person. The text has this:
Many of the individuals treated at this clinic, with a diagnosis of ADHD and/or pervasive development disorder such Asperger's Syndrome or autism also present with symptoms consistent with a diagnosis of a developmental coordination disorder. They are often described as ‘unco’ (unco-ordinated) by their peers and experience victimization, poor self-esteem and frustration as a consequence of their poor coordination. […] Individuals have described a sense of having more time to coordinate movements and to understand and integrate their own activity appropriately within a team sport such as soccer, which has previously eluded them. Individuals have felt frustration at being able to practise repeatedly an activity or skill only to be unable to put it into practice when required, within the play of a match. It is proposed that individuals were previously unable to process and plan their own coordination but remain aware of the general activity in which they were participating.

Molecules are shown by their SMILES.

As to `CCCC(CCC)C(=O)O.[Na]` [sodium valproate, sodium di-n-propylacetic acid], the “clinical outcome on sleep (case)” value in test [1] is on record as “less effort was required to initiate sleep”. The “clinical outcome (case)” value was “Significant improvement in psychosocial functioning” in test [2] (ADHD, dexamphetamine 25 mg daily augmented with atomexetine 60 mg and sodium valproate 150 mg); “improved coordination, improved school attendance, improved cognition and report grades” in test [2] (Sodium valproate 50 mg increased to 100 mg with stimulant).
